The test system of data set [1] is BRAF mutant and RAS mutant cell lines. More on the design: method as in PMID 29247021, PMID 28939558. The settings on record: preclinical studies; cited from earlier work.
A further data set addresses ERK2. As to conditions: cited from earlier work.
The target in a further data set is ERK1. The settings on record: cited from earlier work.
In data set [2] the test system is ERK1/2. Briefly: Western blot ERK1/2 protein degradation assay in HCT116 cells. In kind it is cell-based, human. As to the method:
A375, HCT116, Calu-6, and B16-F10 cells were purchased from American Type Culture Collection (ATCC) and cultured in DMEM high glucose media (SH30022.01, Cytiva, Shanghai, China) supplemented with 10% fetal bovine serum (10099-144, Gibco, Carlsbad, CA, USA) and 1% penicillin/streptomycin (Solarbio, Beijing, China) in an incubator at 37 °C with 5% CO2. Cells were cultured under the indicated conditions as described in “Cell culture”. Cells were seeded in 6-well plates (3516, Corning, New York, NY, USA). Compounds were dissolved in DMSO for storage (10 mM). Following compound treatment, cells were washed with PBS, scraped from the plate, and lysed using cell lysis buffer (Applygen, Beijing, China). After the protein in the cell lysate was quantified via the BCA quantification method, the samples were placed in a metal bath at 100 °C and heated for 5 min. Cell lysates were separated using a 10% SDS–PAGE gel and transferred to PVDF membranes (Merck Millipore, Burlington, MA, USA). The PVDF membrane was blocked with 5% nonfat dry milk in TBST for one hour. The PVDF membrane was transferred to the antibody diluent and incubated overnight at 4 °C. PVDF membranes were washed three times with TBST for 5 min each and then incubated with the appropriate HRP-conjugated secondary antibody for 1 h at room temperature. After washing three more times with TBST, the PVDF membrane was stained with a hypersensitive ECL chemiluminescence reagent (Biodragon, Beijing, China) and then imaged with Tanon 5200. Grayscale quantitative analysis was performed using ImageJ software. Statistical analysis was performed using GraphPad Prism 8. DC50 and Dmax values were fitted using a four-parameter [inhibitor] versus response and reported directly from the Prism output. Mean ± SD and unpaired t tests were performed in GraphPad Prism.

Data set [3] relates to A375 cells. Briefly: Cell proliferation (CCK8) assay, A375. In kind it is cell-based. As to conditions: Homo sapiens, A-375, A375, 72 h, read-out: IC50 (growth inhibition, cytotoxicity). The protocol: (§1) A375, HCT116, Calu-6, and B16-F10 cells were purchased from American Type Culture Collection (ATCC) and cultured in DMEM high glucose media (SH30022.01, Cytiva, Shanghai, China) supplemented with 10% fetal bovine serum (10099-144, Gibco, Carlsbad, CA, USA) and 1% penicillin/streptomycin (Solarbio, Beijing, China) in an incubator at 37 °C with 5% CO2.
(§2) A 96-well plate (3599, Corning, New York, NY, USA) was inoculated with 100 μL of complete medium containing 10,000 cells, and the experimental, control, and blank groups were established. Three parallel wells were used per concentration. After 10 h, the media from the experimental and control groups were replaced with a compound containing the indicated concentration of the complete medium. Cells were incubated for 72 h before 10 μL of CCK8 reagent (CA1210, Solarbio, Beijing, China) was added to each well and incubated for 1 h. Using a microplate reader (Tecan, Mannendorf, Switzerland), the absorbance at 450 nm was measured. The IC50 values were determined using GraphPad Prism 8 and nonlinear regression curve fitting.

Data set [4] has as its system ERK1/2. Description: Western blot ERK1/2 protein degradation assay in A375 cells. In kind it is cell-based, human. As to the method:
as §1
Cells were cultured under the indicated conditions as described in “Cell culture”. Cells were seeded in 6-well plates (3516, Corning, New York, NY, USA). Compounds were dissolved in DMSO for storage (10 mM). Following compound treatment, cells were washed with PBS, scraped from the plate, and lysed using cell lysis buffer (Applygen, Beijing, China). After the protein in the cell lysate was quantified via the BCA quantification method, the samples were placed in a metal bath at 100 °C and heated for 5 min. Cell lysates were separated using a 10% SDS–PAGE gel and transferred to PVDF membranes (Merck Millipore, Burlington, MA, USA). The PVDF membrane was blocked with 5% nonfat dry milk in TBST for one hour. The PVDF membrane was transferred to the antibody diluent and incubated overnight at 4 °C. PVDF membranes were washed three times with TBST for 5 min each and then incubated with the appropriate HRP-conjugated secondary antibody for 1 h at room temperature. After washing three more times with TBST, the PVDF membrane was stained with a hypersensitive ECL chemiluminescence reagent (Biodragon, Beijing, China) and then imaged with Tanon 5200. Grayscale quantitative analysis was performed using ImageJ software. Statistical analysis was performed using GraphPad Prism 8. DC50 and Dmax values were fitted using a four-parameter [inhibitor] versus response and reported directly from the Prism output. Mean ± SD and unpaired t tests were performed in GraphPad Prism.
(In general: A western blot detects proteins with antibodies after separation by electrophoresis.)

The test system of a further data set is Calu-6 cells. Briefly: Cell proliferation (CCK8) assay, Calu-6. In kind it is cell-based. As to conditions: Homo sapiens, Calu-6, 72 h, read-out: IC50 (growth inhibition, cytotoxicity). As to the method:
as §1, §2

Data set [5] has as its system ERK1/2. Description: Western blot ERK1/2 protein degradation assay in B16-F10 cells. Format: cell-based. The settings on record: B16-F10 murine melanoma cells, 48 h. The protocol:
(§3) A375, HCT116, Calu-6, and B16-F10 cells were purchased from American Type Culture Collection (ATCC) and cultured in DMEM high glucose media (SH30022.01, Cytiva, Shanghai, China) supplemented with 10% fetal bovine serum (10099-144, Gibco, Carlsbad, CA, USA) and 1% penicillin/streptomycin (Solarbio, Beijing, China) in an incubator at 37 °C with 5% CO2. Cells were cultured under the indicated conditions as described in “Cell culture”. Cells were seeded in 6-well plates (3516, Corning, New York, NY, USA). Compounds were dissolved in DMSO for storage (10 mM). Following compound treatment, cells were washed with PBS, scraped from the plate, and lysed using cell lysis buffer (Applygen, Beijing, China). After the protein in the cell lysate was quantified via the BCA quantification method, the samples were placed in a metal bath at 100 °C and heated for 5 min. Cell lysates were separated using a 10% SDS–PAGE gel and transferred to PVDF membranes (Merck Millipore, Burlington, MA, USA). The PVDF membrane was blocked with 5% nonfat dry milk in TBST for one hour. The PVDF membrane was transferred to the antibody diluent and incubated overnight at 4 °C. PVDF membranes were washed three times with TBST for 5 min each and then incubated with the appropriate HRP-conjugated secondary antibody for 1 h at room temperature. […] Grayscale quantitative analysis was performed using ImageJ software. […]

Data set [6] relates to A375 cells. Description: Transwell migration assay. In kind it is cell-based, human. As to conditions: 24 h. The protocol: A total of 100 µL of FBS-free DMEM high-glucose medium containing 20,000 cells was added to the upper layer of the Transwell chamber of a 24-well plate (3422, Corning, New York, NY, USA), and a complete medium containing 10% FBS was added to the lower layer. The experimental group and the control group were established. The control group used DMSO (DMSO concentration in the culture medium was no more than 0.5% in each well), and the specified concentration of compounds was added to the medium of the experimental group. The cells were then placed in an incubator for 24 h. The cells were washed with PBS, the cells in the upper layer of the Transwell chamber were wiped off with a cotton swab, and the cells were fixed with cold methanol for 15 min. The cells were stained with crystal violet reagent and observed and photographed under a microscope. Then, crystal violet was washed with 33% acetic acid and the absorbance was measured at a wavelength of 590 nm. Graphing with GraphPad Prism 8 after counting cells was performed.

Data set [7] has as its system ERK1/2. Briefly: Western blot ERK1/2 protein degradation assay in Calu-6 cells. Format: cell-based, human. The settings on record: 48 h, Western blot and grayscale quantification. As to the method:
as §3

Another data set relates to HCT116 cells. Description: Cell proliferation (CCK8) assay, HCT116. In kind it is cell-based, human. As to conditions: HCT116, 72 h, read-out: IC50 (growth inhibition, cytotoxicity). As to the method:
as §1, §2

A further data set relates to HCT116 tumor. Briefly: HCT116 subcutaneous xenograft model in nude mice. Format: in vivo. The protocol: Male BALB/c nude mice of around 8 weeks old were purchased from Charles River (Beijing, China). Nude mice were raised in SPF-grade animal rooms and had access to water and food ad libitum. HCT116 colorectal cancer cells were grown in DMEM supplemented with 10% fetal calf serum and 1% penicillin/streptomycin under standard cell culture conditions. HCT116 xenografts were prepared by subcutaneously injecting 5× 10^6 cells suspended in PBS into the right flank of each male BALB/c nude mouse. Tumor growth was monitored via caliper measurement, and volume was calculated using the following equation: 0.5 × max (length/width) × min (length/width) × min (length/width). When the tumors reached an average of approximately 100 mm^3, the mice were randomized into groups of five. The mice were injected intraperitoneally once a day at doses of 6, 12, 25 mg/kg compound B1-10J and 25 mg/kg 5-FU. Body weights and tumor volumes were measured every 2–3 days. All studies were appropriately statistically powered.

The test system of the next data set is HCT116 mouse xenografts. More on the design: method as in PMID 27227380. As to conditions: cited from earlier work.
The next data set deals with tumor. More on the design: method as in PMID 28376306. As to conditions: daily dose of 50 mg/kg; cited from earlier work.

Structures are written as SMILES. Entries after “also recorded” stand apart in the source; their conditions may differ. Like-named read-outs stand apart in the source and are kept apart here. Where only a bound is given, the exact number is not on record here.

For orientation: Ki means the equilibrium dissociation constant of an inhibitor or competing ligand from its target. What is called DC50 is the concentration at which degradation of the target reaches its halfway point. Read a low DC50 as degradation at low concentration. The term IC50 denotes the concentration needed to halve the response being measured.

Turning to `CC(C)Nc1cc(-c2c[nH]c(C(=O)N[C@H](CO)c3cccc(Cl)c3)c2)c(Cl)cn1` [BVD-523], in data set [1], the anticancer activity result is on record as “demonstrated anticancer activity”. Besides, the Ki on ERK2 is 0.04 nM; on ERK1, less than 0.3 nM.
Regarding `Cc1cccc(CN2C(=O)c3cc(-c4nc(Nc5ccnc(C#CCCN(C)CCCCCCCCCCNc6cccc7c6C(=O)N(C6CCC(=O)NC6=O)C7=O)c5)ncc4C)cn3C[C@H]2C)n1` (stereo partly shown) [Compound B1-10J], in the data set on ERK1/2 [2] (1 μM), the “duration of ERK1/2 degradation” value is given as “up to 72 h”. For the same molecule, the “time at which ERK1/2 degradation nearly reached its highest level” value in the data set with ERK1/2 [2] (1 μM) and in the data set on ERK1/2 [4] (1 μM) was 24 h in each case. The “time at which ERK1/2 protein began to degrade” value in the data set with ERK1/2 [2] (1 μM) and in the data set with ERK1/2 [4] (1 μM) was 6 h throughout. Moreover, the DC50 with ERK1/2 [2] (48 h, Western blot and grayscale quantification) was found to be 102 nM; with ERK1/2 [4] (48 h, Western blotting and grayscale quantification), 498 ± 369 nM; with ERK1/2 [7], 85 nM. Moreover, the IC50 is more than 30000 nM with A375 cells [3]; 15900 nM in the data set on Calu-6 cells; 2100 nM in the data set on HCT116 cells; 2200 nM in the data set with HCT116 cells (Homo sapiens, HCT-116, 72 h). In addition, the “time after which ERK1/2 protein level returned to normal” value in the data set with ERK1/2 [4] (1 μM) is given as more than 48 h. Besides, the “ERK1/2 degradation with/without MG132 and MLN4924” value in the data set with ERK1/2 [4] (24 h, B1-10J 1 μM, MG132 1 μM, MLN4924 1 μM) is recorded as “only degraded by B1-10J alone”. In the data set on ERK1/2 [4] (24 h, large range of concentrations), the “concentration dependence of ERK1/2 degradation (hook effect)” value is given as “typical “hook” effect”. Also, the “ERK1/2 degradative activity (in words)” value is “slightly increased DC50; also recorded: effective ERK1/2 degraders” with ERK1/2 [4] (48 h, Western blot) and “weak degradative activity” in the data set with ERK1/2 [5]. Moreover, in the data set with A375 cells [6] (1 μM, crystal violet absorbance 590 nm), the “decrease of migration rate” value is on record as “more than 50%”. The “cell migration (in words)” value in the data set with A375 cells [6] (Transwell chamber) is listed as “dose-dependently inhibited; also recorded: decreased markedly; also recorded: significantly prevented the migration”. Further, the tumor growth inhibition entry in the data set on HCT116 tumor (25 mg/kg daily, intraperitoneal, up until day 19) was “approximately 50%”. In addition, the “tumor growth inhibition, dose dependence” value with HCT116 tumor (6, 12, 25 mg/kg Q.D., intraperitoneal) is on record as “dose-dependent manner”. In addition, in the data set on HCT116 tumor (daily dose of 25 mg/kg, intraperitoneal, 25 mg/kg), the “antitumor effect (in words)” value was “more effective at a 25 mg/kg dose than 5-FU”. The “body weight / tolerability” value with HCT116 tumor (nude mice with HCT116 xenograft, during treatment) is given as “well-tolerated”.
For `Cn1nccc1Nc1nccc(-c2ccn([C@H](CO)c3ccc(Cl)c(F)c3)c(=O)c2)n1` [GDC-0994, (S)-1-(1-(4-Chloro-3-fluorophenyl)-2-hydroxyethyl)-4-(2-((1-methyl-1H-pyrazol-5-yl)amino)pyrimidin-4-yl)pyridin-2(1H)-one], the figures for the IC50 in the data set with ERK2 and with ERK1 were […] and […], respectively. For the same molecule, the antitumor activity entry with HCT116 mouse xenografts is recorded as “potent antitumor activity”.
Take `Cc1cccc(CN2C(=O)c3cc(-c4nc(Nc5ccnn5C)ncc4C)cn3C[C@H]2C)n1` [compound 35]: in the data set with ERK2, the IC50 was less than 0.3 nM. The antitumor effect result in the data set on tumor is recorded as “significant tumor regression”.

These data come from article PMC10671693, “Design, Synthesis, and Antitumor Activity Evaluation of Proteolysis-Targeting Chimeras as Degraders of Extracellular Signal-Regulated Kinases 1/2” (International Journal of Molecular Sciences, 2023).
